Drawing on ChEMBL document CHEMBL1201862, “PubChem BioAssay data set” (2004), this text covers IC50 and EC50 for seven compounds.

Type in all cases: functional
One experiment deals with Genome polyprotein (dengue virus type 2, UniProt P29990). Briefly: flavivirus cap methylation enzyme inhibition – biochemical, confirmation dose response, primary screen (AID 588689).
For experiment [1], the target named is T1, RNA-editing ligase 1, mitochondrial (Trypanosoma brucei brucei, UniProt P86926).
T1 sequence (P86926 whole entry): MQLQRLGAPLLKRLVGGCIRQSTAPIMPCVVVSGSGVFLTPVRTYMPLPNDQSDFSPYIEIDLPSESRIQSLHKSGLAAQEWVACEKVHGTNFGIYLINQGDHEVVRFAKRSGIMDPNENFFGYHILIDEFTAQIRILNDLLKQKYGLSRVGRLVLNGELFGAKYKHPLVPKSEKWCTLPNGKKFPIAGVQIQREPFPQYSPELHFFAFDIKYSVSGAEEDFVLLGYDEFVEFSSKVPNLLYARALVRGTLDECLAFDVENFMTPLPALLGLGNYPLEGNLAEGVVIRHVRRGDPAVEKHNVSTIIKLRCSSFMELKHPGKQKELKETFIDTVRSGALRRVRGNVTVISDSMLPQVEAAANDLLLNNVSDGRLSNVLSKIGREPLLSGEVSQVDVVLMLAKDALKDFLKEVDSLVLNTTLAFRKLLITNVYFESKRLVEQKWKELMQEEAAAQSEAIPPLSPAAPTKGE
The experiment is described as follows: inhibition of trypanosome RNA editing ligase – biochemical, fluorescence, Trypanosoma brucei, dose response (AID 1117295).

Experiment [2] deals with T2, Tyrosine-protein phosphatase non-receptor type 7 (Homo sapiens, UniProt P35236).
T2 sequence (P35236 whole entry): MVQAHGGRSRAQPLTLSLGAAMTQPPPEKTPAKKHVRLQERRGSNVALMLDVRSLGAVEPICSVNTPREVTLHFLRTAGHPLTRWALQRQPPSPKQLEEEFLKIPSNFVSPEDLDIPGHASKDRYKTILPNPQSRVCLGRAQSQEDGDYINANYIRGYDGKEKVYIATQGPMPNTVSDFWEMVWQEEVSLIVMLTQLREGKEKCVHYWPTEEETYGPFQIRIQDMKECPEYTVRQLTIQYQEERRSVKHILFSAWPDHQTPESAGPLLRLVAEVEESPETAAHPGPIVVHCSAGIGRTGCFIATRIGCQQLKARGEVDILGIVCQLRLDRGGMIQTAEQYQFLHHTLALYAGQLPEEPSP

In experiment [3] the target is T3, Tyrosine-protein phosphatase non-receptor type 22 (Homo sapiens, UniProt Q9Y2R2).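 Also: confirmatory dose-response retesting of primary uHTS hits against LYP; potency is for inhibition of phosphatase activity.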
T3 sequence (Q9Y2R2 whole entry): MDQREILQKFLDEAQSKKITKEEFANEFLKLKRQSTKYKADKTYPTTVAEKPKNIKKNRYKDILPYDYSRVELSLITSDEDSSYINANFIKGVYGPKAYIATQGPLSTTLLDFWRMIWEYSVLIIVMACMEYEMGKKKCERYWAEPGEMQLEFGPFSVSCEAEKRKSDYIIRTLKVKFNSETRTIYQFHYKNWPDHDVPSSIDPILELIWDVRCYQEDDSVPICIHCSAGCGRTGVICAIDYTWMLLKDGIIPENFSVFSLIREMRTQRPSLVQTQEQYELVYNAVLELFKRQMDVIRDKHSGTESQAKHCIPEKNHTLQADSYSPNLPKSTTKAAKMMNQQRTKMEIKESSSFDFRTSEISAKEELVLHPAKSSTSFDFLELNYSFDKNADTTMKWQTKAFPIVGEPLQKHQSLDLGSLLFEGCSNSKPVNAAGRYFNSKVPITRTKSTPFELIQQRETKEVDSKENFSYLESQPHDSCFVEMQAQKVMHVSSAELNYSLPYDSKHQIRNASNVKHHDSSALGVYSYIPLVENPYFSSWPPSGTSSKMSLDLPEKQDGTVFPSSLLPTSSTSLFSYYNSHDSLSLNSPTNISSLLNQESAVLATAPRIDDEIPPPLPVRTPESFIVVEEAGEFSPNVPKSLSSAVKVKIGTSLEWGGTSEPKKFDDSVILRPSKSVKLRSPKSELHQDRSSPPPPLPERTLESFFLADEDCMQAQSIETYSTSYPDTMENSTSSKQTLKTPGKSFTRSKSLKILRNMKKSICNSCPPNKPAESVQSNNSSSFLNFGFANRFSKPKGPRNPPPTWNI

In the next experiment the target is T4, Protein RecA (Mycobacterium tuberculosis, UniProt P9WHJ3).
T4 sequence (P9WHJ3 whole entry): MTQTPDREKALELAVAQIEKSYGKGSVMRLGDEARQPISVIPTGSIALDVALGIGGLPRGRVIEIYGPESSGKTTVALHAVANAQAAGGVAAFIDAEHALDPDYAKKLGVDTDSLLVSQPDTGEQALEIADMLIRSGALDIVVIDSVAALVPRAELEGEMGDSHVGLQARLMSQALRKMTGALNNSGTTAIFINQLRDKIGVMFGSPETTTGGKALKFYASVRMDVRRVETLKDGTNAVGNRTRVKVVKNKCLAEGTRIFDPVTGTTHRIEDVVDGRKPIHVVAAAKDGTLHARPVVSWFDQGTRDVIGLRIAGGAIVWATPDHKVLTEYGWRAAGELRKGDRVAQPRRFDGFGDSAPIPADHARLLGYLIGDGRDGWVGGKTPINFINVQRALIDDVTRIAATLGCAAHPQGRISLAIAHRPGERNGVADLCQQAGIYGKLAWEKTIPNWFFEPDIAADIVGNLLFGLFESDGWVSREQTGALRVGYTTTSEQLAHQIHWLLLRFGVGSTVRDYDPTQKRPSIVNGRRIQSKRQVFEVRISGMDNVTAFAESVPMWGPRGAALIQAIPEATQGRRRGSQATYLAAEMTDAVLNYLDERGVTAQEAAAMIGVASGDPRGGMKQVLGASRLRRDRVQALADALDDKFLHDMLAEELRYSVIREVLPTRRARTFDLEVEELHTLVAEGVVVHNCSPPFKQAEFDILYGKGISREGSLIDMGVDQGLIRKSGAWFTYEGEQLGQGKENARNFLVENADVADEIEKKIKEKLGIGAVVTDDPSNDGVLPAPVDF
The experiment is described as follows: Fluorescence Cell-Free Homogeneous Dose Retest to Identify Inhibitors of RecA-Intein Splicing Activity. [Related pubchem assays (depositor defined):AID2097, AID2223, AID489010, AID492950].

Experiment [4] concerns the target Small ubiquitin-related modifier 1 (Homo sapiens, UniProt P63165). Briefly: SUMO1 protein interaction blockers, potency – biochemical, fluorescence polarization, uHTS hits, dose response (AID 624382). The conditions noted are these: read-out: IC50_Mean. In general terms: Polarisation of emitted light reports the rotation of a fluorescent probe.

Calls of active or inactive are those of the source. Where only a bound is given, the exact number is not on record here.

In general, EC50 refers to the concentration at which the effect is half-maximal.

Sequence of Genome polyprotein (P29990 2492-3391 limits assumed): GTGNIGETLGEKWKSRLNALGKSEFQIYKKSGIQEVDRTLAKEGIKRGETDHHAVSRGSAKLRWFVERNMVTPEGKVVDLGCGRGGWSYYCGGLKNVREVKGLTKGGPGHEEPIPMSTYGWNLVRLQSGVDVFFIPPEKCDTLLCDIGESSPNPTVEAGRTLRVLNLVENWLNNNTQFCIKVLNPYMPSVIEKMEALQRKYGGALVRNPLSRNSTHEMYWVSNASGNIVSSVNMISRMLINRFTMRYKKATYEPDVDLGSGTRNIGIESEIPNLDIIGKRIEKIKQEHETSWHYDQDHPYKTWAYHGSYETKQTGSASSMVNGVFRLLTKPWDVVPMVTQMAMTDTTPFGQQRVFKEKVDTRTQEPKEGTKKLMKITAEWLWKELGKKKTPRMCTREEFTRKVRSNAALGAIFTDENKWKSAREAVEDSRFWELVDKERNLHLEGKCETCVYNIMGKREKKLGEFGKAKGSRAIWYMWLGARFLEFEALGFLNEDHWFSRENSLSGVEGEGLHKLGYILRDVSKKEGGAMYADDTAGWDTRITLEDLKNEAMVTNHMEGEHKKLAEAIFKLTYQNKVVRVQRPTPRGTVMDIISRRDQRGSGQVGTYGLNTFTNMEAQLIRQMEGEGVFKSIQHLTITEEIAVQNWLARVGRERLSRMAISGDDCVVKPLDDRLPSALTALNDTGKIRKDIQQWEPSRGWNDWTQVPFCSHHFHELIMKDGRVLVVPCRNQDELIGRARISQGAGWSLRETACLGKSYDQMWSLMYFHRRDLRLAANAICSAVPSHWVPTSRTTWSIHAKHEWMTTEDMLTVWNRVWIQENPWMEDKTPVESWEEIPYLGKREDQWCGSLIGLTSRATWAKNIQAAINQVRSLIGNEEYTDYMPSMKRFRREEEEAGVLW
Sequence of Small ubiquitin-related modifier 1 (P63165 whole entry): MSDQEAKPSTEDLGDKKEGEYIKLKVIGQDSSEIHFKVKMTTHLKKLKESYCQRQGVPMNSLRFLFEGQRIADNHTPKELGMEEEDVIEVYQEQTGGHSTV

For `Cc1oc2c(c1C(=O)c1ccccc1)C(=O)C(=O)c1ccccc1-2`, the IC50 on Genome polyprotein is 48.4 µM (active); in experiment [1], 10.3 µM (inactive).
Regarding `O=C(O)COc1ccc(/C=N/NC(=O)c2ccc(-c3csc(Nc4ccc(Cl)cc4)n3)cc2)cc1`, the IC50 in experiment [2] and in experiment [3] was < 1.24 µM (active) each time.
As for `O=C1CCCC2=C1C1(O)C(=O)c3ccccc3C1(O)O2` (configuration not stated), on Protein RecA, the EC50 is 11.5 µM (active).
Regarding `Nc1ccc2nc3c(O)nc(S)nc3nc2c1`, the IC50 was > 79.4 µM (inactive) in experiment [2], 76.3 µM (active) in experiment [3], 5.69 µM (active) in experiment [4] and 2.76 µM (active) in experiment [1].
With `CSc1ccc(C=NNc2ccc(S(=O)(=O)Nc3ccccc3C(=O)O)cc2[N+](=O)[O-])cc1`, the IC50 in experiment [4] was 3.23 µM (active).
`CC(/C=C1\SC(=S)N(NS(=O)(=O)c2ccccc2)C1=O)=C\c1ccccc1`: the IC50 at Genome polyprotein is 29.3 µM (active).
As to `O=C1C(Cl)=C(NCCN2CCCCC2)C(=O)c2ccccc21`, the EC50 on Protein RecA was 7.31 µM (active).
